This note sets out measurements from ChEMBL document CHEMBL1127566, “Thienyl and thiazolyl acyclic analogues of 5-deazatetrahydrofolic acid” (J Med Chem, 1994).

The subject of one series is MCF7. Kind of series: Ability to inhibit growth of MCF-7 human breast adenocarcinoma in vitro. Type of series: functional, cell-based.
For series [1], the system named is folylpolyglutamate synthase (FPGS). Kind of series: Km of Hog folyl-poly-glutamate synthase (FPGS) relative to aminopterin. Further details: species or system Sus scrofa. To be noted: pig, hog folylpolyglutamate synthase (FPGS) enzyme.
In the next series the test system is CCRF-CEM. The experiment in a line: In vitro antitumor activity was assessed from rate of cell growth of CCRF/CEM cell line. Type of series: functional, cell-based. As to conditions: Homo sapiens.
The species entered for the next series is Sus scrofa. The experiment in a line: Vmax of Hog folyl-poly-glutamate synthase (FPGS) relative to aminopterin. To be noted: pig, in vitro.
A further series relates to MOLT-4. The experiment in a line: Ability to inhibit [3H]methotrexate transport into MOLT-4 cells in vitro. The format is functional, cell-based. To be noted: Homo sapiens.
Substrate in series [2]: Nc1nc(N)c(CCCNc2cnc(C(=O)N[C@@H](CCC(=O)O)C(=O)O)s2)c(O)n1
The experiment in a line: (§1) Vmax of Hog Folyl-polyglutamate synthase relative to aminopterin. To be noted: Sus scrofa.

Substrate in series [3]: Nc1nc(N)c(CCCNc2ccc(C(=O)N[C@@H](CCC(=O)O)C(=O)O)s2)c(O)n1
The description is as §1. As to conditions: Sus scrofa.

Substrate in series [4]: Nc1nc(N)c(CCCNc2cnc(C(=O)N[C@@H](CCC(=O)O)C(=O)O)s2)c(O)n1
The experiment in a line: (§2) Km of Hog Folyl-polyglutamate synthase relative to aminopterin. As to conditions: Sus scrofa.

Substrate in series [5]: Nc1nc(N)c(CCCNc2ccc(C(=O)N[C@@H](CCC(=O)O)C(=O)O)s2)c(O)n1
The series is described as §2. To be noted: Sus scrofa.

Take `Nc1nc2c(c(=O)[nH]1)C[C@@H](CCc1ccc(C(=O)N[C@@H](CCC(=O)O)C(=O)O)cc1)CN2` [LOMETREXOL]: the concentration for half-maximal inhibition (IC50) in the series with MCF7 was 18 nM; in the series with CCRF-CEM, 15 nM; in the series on MOLT-4, 1500 nM. The Michaelis constant (Km) in [1] was found to be 17.5 µM. In addition, the Vmax in the series listed under Sus scrofa is 97%.

Take `Nc1nc(N)c(CCCNc2ccc(C(=O)N[C@@H](CCC(=O)O)C(=O)O)s2)c(O)n1`: the IC50 was 38 nM in the series on MCF7 and 1600 nM in the series on MOLT-4.

As for `Nc1nc(N)c(CCCNc2cnc(C(=O)N[C@@H](CCC(=O)O)C(=O)O)s2)c(O)n1`, the IC50 in the series on MCF7 was found to be 4 nM; with MOLT-4, 800 nM.

As for `Nc1nc(N)c(CCCNc2ccc(C(=O)N[C@@H](CCC(=O)O)C(=O)O)cc2)c(O)n1`, in the series with MCF7, half-maximal inhibition (IC50) required 37 nM.

Consider `Nc1nc(O)c2c(n1)NCC(CCc1ccc(C(=O)N[C@@H](CCC(=O)O)C(=O)O)o1)C2` (stereo partly specified), for which the midpoint of inhibition with CCRF-CEM, the IC50, lay at 27 nM.

In the case of `Nc1nc(O)c2c(n1)NCC(CCc1ccc(C(=O)N[C@@H](CCC(=O)O)C(=O)O)s1)C2` (stereo partly specified), in the series with CCRF-CEM, the IC50 is 2.3 nM.

B1: Folylpolyglutamate synthase, mitochondrial (Homo sapiens), Q05932 (protein)
chain: MSRARSHLRAALFLAAASARGITTQVAARRGLSAWPVPQEPSMEYQDAVRMLNTLQTNAGYLEQVKRQRGDPQTQLEAMELYLARSGLQVEDLDRLNIIHVTGTKGKGSTCAFTECILRSYGLKTGFFSSPHLVQVRERIRINGQPISPELFTKYFWRLYHRLEETKDGSCVSMPPYFRFLTLMAFHVFLQEKVDLAVVEVGIGGAYDCTNIIRKPVVCGVSSLGIDHTSLLGDTVEKIAWQKGGIFKQGVPAFTVLQPEGPLAVLRDRAQQISCPLYLCPMLEALEEGGPPLTLGLEGEHQRSNAALALQLAHCWLQRQDRHGAGEPKASRPGLLWQLPLAPVFQPTSHMRLGLRNTEWPGRTQVLRRGPLTWYLDGAHTASSAQACVRWFRQALQGRERPSGGPEVRVLLFNATGDRDPAALLKLLQPCQFDYAVFCPNLTEVSSTGNADQQNFTVTLDQVLLRCLEHQQHWNHLDEEQASPDLWSAPSPEPGGSASLLLAPHPPHTCSASSLVFSCISHALQWISQGRDPIFQPPSPPKGLLTHPVAHSGASILREAAAIHVLVTGSLHLVGGVLKLLEPALSQ
Take B1: the Vmax in [2] is 99.3%; in [3] it was 118%. Besides, the Km amounted to 8.6 µM in [4] and 9.3 µM in series [5].
